Read-outs that look alike come from different tables or passages of the source.
Tests used:
[1] = biological target: human EP4 receptor (Homo sapiens (Human), UniProt P35408); assay: Test for antagonism of the human EP4 receptor signal (cAMP HTRF); format: cell-based
How it was run: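 Antagonism of PGE2-stimulated cAMP formation in hEP4-R cells with IBMX present. After lysis, cAMP measured by competitive TR-FRET (Eu cryptate anti-cAMP antibody vs cAMP-d2), 20 min at room temperature. Read-out is the 665/620 nm emission ratio; antagonism appears as restored FRET signal.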

[2] = tested on: endometrial lesions; assay: Syngeneic mouse endometriosis model (preventive); format: in vivo; conditions: 28 days
Description: The syngeneic induction of endometriosis in mice is a common animal model for testing the efficacy of substances for the treatment of endometriosis. Endometriosis is induced experimentally by transplantation of murine uterus fragments of a donor mouse of the same strain into the abdominal cavity of the recipient mouse. Female mice of the balb/c strain were used. The cycle of the mouse is determined by means of a vaginal smear. Donor animals which are in oestrus are used exclusively. The donor animals are sacrificed and the uterine horns are removed and subsequently cut open longitudinally. From the uteri, using a punch 2 mm bioptates are punched out, which are subsequently sewn into the recipient animal. The recipient animals are anaesthetised and subjected to a laparotomy. During the intervention, 6 uterus punchings of a donor mouse are sewn onto the parietal peritoneum of the recipient mouse. […] After 28 days, the animals are opened up in a final laparotomy and the lesion sizes are determined. The grown lesions are photographically recorded and the area is measured by means of AxioVision Software. […] In the s.c. approach (FIG. 1), the substance according to the invention (Example 4) was tested in 4 different dose schemes and the lesion size was assessed in comparison to the animals treated with vehicle. […]

[3] = tested on: macrophages in the peritoneal fluid; assay: Flow cytometry of peritoneal lavage cells (macrophage activation); format: in vivo; conditions: mouse endometriosis model, p.o., vs vehicle control, p<0.001
Description: For the obtainment of the cells from the peritoneum, 3 ml of cold PBS (phosphate buffered saline) were injected into the peritoneum of the dead animal and removed again after gentle massage of the abdomen. The cells from this peritoneal lavage were spun down at 1400 rpm for 2 min and taken up again in 500 μl of PBS containing 2% FCS (fetal calf serum). 100 μl of this cell suspension were used for each stain with different antibody-fluorochrome conjugate mixes. The cells were spun down for this purpose in 96 hole plates again and resuspended in 50 μl of an antibody solution in the 1:300 diluted anti CD11b-Pacific Blue (eBioscience), 1:200 diluted anti F4/80-PE (eBioscience), 1:200 diluted anti Gr1-APC-Cy7 (BD Pharmigen), 1:400 diluted anti CD11c-PE-Cy7 (BD Pharmigen) and 1:400 diluted anti MHCII-FITC (BD Pharmigen) and stored on ice in the dark for 20 min. Subsequently, 150 μl of PBS containing 2% FCS were added and the cells were once again centrifuged down at 1400 rpm for 2 min. The 200 μl of supernatant were discarded and the cells were washed with 200 μl of PBS containing 2% FCS and once again centrifuged off.
Subsequently, they were taken up in 200 μl of PBS containing 2% FCS and 1:5000 diluted 5 mg/ml DAPI (Sigma) and the fluorescence intensity of the individual fluorochromes per cell was measured with a FACS Canto II flow cytometer. […]

[4] = cells expressing hEP4, PGE2 at EC80 (0.4 nM), cAMP TR-FRET, read-out: Antagonism hEP4 IC50

human EP4 receptor, sequence (P35408 whole entry): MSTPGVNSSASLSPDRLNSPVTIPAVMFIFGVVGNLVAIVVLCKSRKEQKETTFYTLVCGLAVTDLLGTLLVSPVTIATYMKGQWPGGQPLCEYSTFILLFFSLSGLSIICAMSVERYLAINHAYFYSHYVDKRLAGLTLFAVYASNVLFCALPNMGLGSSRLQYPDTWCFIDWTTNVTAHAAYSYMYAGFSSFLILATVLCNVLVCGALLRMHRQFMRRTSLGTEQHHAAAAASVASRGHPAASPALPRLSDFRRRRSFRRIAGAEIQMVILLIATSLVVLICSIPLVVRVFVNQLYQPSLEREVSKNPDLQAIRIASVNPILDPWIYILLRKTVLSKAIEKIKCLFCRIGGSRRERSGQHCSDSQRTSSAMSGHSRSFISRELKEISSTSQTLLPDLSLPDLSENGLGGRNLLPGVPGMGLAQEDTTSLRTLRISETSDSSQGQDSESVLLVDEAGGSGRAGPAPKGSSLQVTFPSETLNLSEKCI

In the case of `CCn1c2ccccc2c2cc(-c3nc4cc(C(=O)O)ccc4n3CCOC)ccc21` [Example 4, 2-(9-Ethyl-9H-carbazol-3-yl)-1-(2-methoxyethyl)-1H-benzimidazole-5-carboxylic acid], the IC50 ([1]; antagonism test Example 3.2.1, read-out: IC50 value at the EP4 receptor (antagonism test)) is reported as about 6 nM, the IC50 [1, 4] is reported as 5.59 nM and the “reduction of the endometrial lesions, oral administration” value ([2]; p.o., vs control, p<0.01) is reported as “significant reduction of the endometrial lesions”. For the same compound, the “reduction of the endometrial lesions, subcutaneous administration” value ([2]; s.c., 0.4, 3, 10 and 50 mg/kg/day, vs vehicle) was “significant reduction of the endometrial lesions” and the “number of activated macrophages in the peritoneal fluid (FACS)” value [3] was “highly significant reduced number of activated macrophages”.
`CCn1c2ccccc2c2cc(-c3nc4cc(C(=O)NS(=O)(=O)c5ccc(OC)cc5)ccc4n3CCOC)ccc21` [Example 19, 2-(9-Ethyl-9H-carbazol-3-yl)-1-(2-methoxyethyl)-N-[(4-methoxyphenyl)sulphonyl]-1H-benzimidazole-5-carboxamide] was tested, and the IC50 [1, 4] was 32.2 nM.
Work on `CCn1c2ccccc2c2cc(-c3nc4cc(-c5n[nH]c(=O)o5)ccc4n3CCOC)ccc21` [Example 106, 5-[2-(9-Ethyl-9H-carbazol-3-yl)-1-(2-methoxyethyl)-1H-benzimidazol-5-yl]-1,3,4-oxadiazol-2(3H)-one] yielded an IC50 [1, 4] of 43.7 nM.
For `CCn1c2ccccc2c2cc(-c3nc4cc(C(=O)N5CCC5)ccc4n3CC3CC3)ccc21` [Example 80, Azetidin-1-yl[1-(cyclopropylmethyl)-2-(9-ethyl-9H-carbazol-3-yl)-1H-benzimidazol-5-yl]-methanone], the IC50 [1, 4] was 68.3 nM.
`CCn1c2ccccc2c2cc(-c3nc4cc(C(=O)O)ccc4n3CCOC(F)(F)F)ccc21` [Example 130, 2-(9-Ethyl-9H-carbazol-3-yl)-1-[2-(trifluoromethoxy)ethyl]-1H-benzimidazole-5-carboxylic acid] was tested, and the IC50 [1, 4] was 14.3 nM.
`CCn1c2ccccc2c2cc(-c3nc4cc(C(=O)NS(=O)(=O)c5ccccc5)ccc4n3CCOC)ccc21` [Example 50, 2-(9-Ethyl-9H-carbazol-3-yl)-1-(2-methoxyethyl)-N-(phenylsulphonyl)-1H-benzimidazole-5-carboxamide] showed an IC50 [1, 4] of 33.6 nM.
Compound `CCn1c2ccccc2c2cc(-c3nc4cc(C(=O)NCCN5CCCC5)ccc4n3CCOC)ccc21` [Example 87, 2-(9-Ethyl-9H-carbazol-3-yl)-1-(2-methoxyethyl)-N-[2-(pyrrolidin-1-yl)ethyl]-1H-benzimidazole-5-carboxamide] has an IC50 [1, 4] of 209 nM.
